Test results from PubChem BioAssay AID2060906 (Molecular Pharmacology Branch, DTP, NCI, 2025).

System: 485176-168-R4-J1-PDC complex spheroid growth
Assay: Anticancer human tumor 485176-168-R4-J1-PDC patient-derived pancreatic adenocarcinoma cell line growth inhibition [RAS]
Settings: for IC50: curve of first compound; for viability, T/C: stronger effect = lower value; active = viability on the fitted dose curve at most 10% of control; inactive = the rest
Procedure, shortened: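 Agents were tested in combination matrices in half-log decrements from a top concentration at or near clinical Cmax (10 microM if undetermined). Targets were multi-cell spheroids of tumour lines plus HUVEC and MSC stromal cells.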

[1] = second compound 0.000949 µM, first compound 0.0316 µM
[2] = second compound 0.000949 µM, first compound 0.1 µM
[3] = second compound 0.000949 µM, first compound 0.316 µM
[4] = second compound 0.000949 µM, first compound 1 µM
[5] = second compound 0.000949 µM, first compound 3.16 µM
[6] = second compound 0.000949 µM, first compound 10 µM
[7] = second compound 0.003 µM, first compound 0.0316 µM
[8] = second compound 0.003 µM, first compound 0.1 µM
[9] = second compound 0.003 µM, first compound 0.316 µM
[10] = second compound 0.003 µM, first compound 1 µM
[11] = second compound 0.003 µM, first compound 3.16 µM
[12] = second compound 0.003 µM, first compound 10 µM
[13] = second compound 0.00949 µM, first compound 0.0316 µM
[14] = second compound 0.00949 µM, first compound 0.1 µM
[15] = second compound 0.00949 µM, first compound 0.316 µM
[16] = second compound 0.00949 µM, first compound 1 µM
[17] = second compound 0.00949 µM, first compound 3.16 µM
[18] = second compound 0.00949 µM, first compound 10 µM
[19] = second compound 0.03 µM, first compound 0.0316 µM
[20] = second compound 0.03 µM, first compound 0.1 µM
[21] = second compound 0.03 µM, first compound 0.316 µM
[22] = second compound 0.03 µM, first compound 1 µM
[23] = second compound 0.03 µM, first compound 3.16 µM
[24] = second compound 0.03 µM, first compound 10 µM
[25] = second compound 0.0949 µM, first compound 0.0316 µM
[26] = second compound 0.0949 µM, first compound 0.1 µM
[27] = second compound 0.0949 µM, first compound 0.316 µM
[28] = second compound 0.0949 µM, first compound 1 µM
[29] = second compound 0.0949 µM, first compound 3.16 µM
[30] = second compound 0.0949 µM, first compound 10 µM
[31] = second compound 0.3 µM, first compound 0.0316 µM
[32] = second compound 0.3 µM, first compound 0.1 µM
[33] = second compound 0.3 µM, first compound 0.316 µM
[34] = second compound 0.3 µM, first compound 1 µM
[35] = second compound 0.3 µM, first compound 3.16 µM
[36] = second compound 0.3 µM, first compound 10 µM
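Note: spheroids exposed to compounds for seven days before readout.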
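Throughout, for viability, T/C: luminescence viability expressed relative to DMSO vehicle wells set as 100%.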

CC(=O)OC12COC1CC(O)C1(C)C(=O)C(O)C3=C(C)C(OC(=O)C(O)C(NC(=O)OC(C)(C)C)c4ccccc4)CC(O)(C(OC(=O)c4ccccc4)C21)C3(C)C (stereo unspecified) + CCn1c(-c2cccnc2C(C)OC)c2c3cc(ccc31)N1CCOC(CC(NC(=O)C(C(C)C)N(C)C(=O)C3(F)CCN(C(=O)C#CC(C)(C)N(C)C)CC3)C(=O)N3CCCC(N3)C(=O)OCC(C)(C)C2)C1
inactive: viability, T/C [1] 13.4% | viability, T/C [2] 13.8% | viability, T/C [3] 13.9% | viability, T/C [4] 10.7% | viability, T/C [5] 13.2% | viability, T/C [6] 17.7% | viability, T/C [7] 15.3% | viability, T/C [8] 12.7% | viability, T/C [9] 12.2% | viability, T/C [10] 14% | viability, T/C [11] 14.4% | viability, T/C [12] 16.7% | viability, T/C [13] 15.4% | viability, T/C [14] 14.8% | viability, T/C [15] 12.1% | viability, T/C [16] 11.9% | viability, T/C [17] 15% | viability, T/C [18] 17.6% | viability, T/C [19] 14.9% | viability, T/C [20] 12.4% | viability, T/C [21] 11.1% | viability, T/C [22] 10.3% | viability, T/C [23] 14.1% | viability, T/C [24] 16.8% | viability, T/C [25] 11.2% | viability, T/C [26] 10.4% | viability, T/C [27] 8.86% | viability, T/C [28] 9.58% | viability, T/C [29] 13.1% | viability, T/C [30] 16.4% | viability, T/C [31] 11.5% | viability, T/C [32] 9.61% | viability, T/C [33] 7.21% | viability, T/C [34] 9.28% | viability, T/C [35] 11.9% | viability, T/C [36] 16.4%
< 31.6 nM: IC50 (second compound 0.000949 µM) | IC50 (second compound 0.003 µM) | IC50 (second compound 0.00949 µM) | IC50 (second compound 0.03 µM) | IC50 (second compound 0.0949 µM) | IC50 (second compound 0.3 µM)

NC1c2ccccc2OC12CCN(c1cnc3c(N4CCCc5ncccc54)n[nH]c3n1)CC2 (stereo unspecified) + CCn1c(-c2cccnc2C(C)OC)c2c3cc(ccc31)N1CCOC(CC(NC(=O)C(C(C)C)N(C)C(=O)C3(F)CCN(C(=O)C#CC(C)(C)N(C)C)CC3)C(=O)N3CCCC(N3)C(=O)OCC(C)(C)C2)C1
> 10000 nM: IC50 (second compound 0.000949 µM) | IC50 (second compound 0.003 µM) | IC50 (second compound 0.00949 µM) | IC50 (second compound 0.03 µM) | IC50 (second compound 0.0949 µM) | IC50 (second compound 0.3 µM)
inactive: viability, T/C [1] 91.4% | viability, T/C [2] 78.7% | viability, T/C [3] 94.2% | viability, T/C [4] 85.9% | viability, T/C [5] 67.8% | viability, T/C [6] 71.6% | viability, T/C [7] 74.5% | viability, T/C [8] 89.4% | viability, T/C [9] 84.1% | viability, T/C [10] 85.5% | viability, T/C [11] 85.7% | viability, T/C [12] 70.2% | viability, T/C [13] 85% | viability, T/C [14] 75.6% | viability, T/C [15] 81.9% | viability, T/C [16] 86.8% | viability, T/C [17] 89.9% | viability, T/C [18] 63.6% | viability, T/C [19] 88.8% | viability, T/C [20] 86.8% | viability, T/C [21] 80.2% | viability, T/C [22] 71.3% | viability, T/C [23] 93.9% | viability, T/C [24] 61.1% | viability, T/C [25] 75% | viability, T/C [26] 71.8% | viability, T/C [27] 72.7% | viability, T/C [28] 65.9% | viability, T/C [29] 82.2% | viability, T/C [30] 61.7% | viability, T/C [31] 59.9% | viability, T/C [32] 76.7% | viability, T/C [33] 57% | viability, T/C [34] 70.2% | viability, T/C [35] 62.9% | viability, T/C [36] 61.7%

Nc1ccn(C2OC(CO)C(O)C2(F)F)c(=O)n1 (stereo unspecified) + CCn1c(-c2cccnc2C(C)OC)c2c3cc(ccc31)N1CCOC(CC(NC(=O)C(C(C)C)N(C)C(=O)C3(F)CCN(C(=O)C#CC(C)(C)N(C)C)CC3)C(=O)N3CCCC(N3)C(=O)OCC(C)(C)C2)C1
18.4 nM: IC50 (second compound 0.003 µM)
16.7 nM: IC50 (second compound 0.000949 µM)
16.8 nM: IC50 (second compound 0.03 µM)
14.1 nM: IC50 (second compound 0.0949 µM)
inactive: viability, T/C (second compound 0.000949 µM, first compound 0.00316 µM) 76.9% | viability, T/C (second compound 0.000949 µM, first compound 0.01 µM) 79.7% | viability, T/C [1] 15% | viability, T/C (second compound 0.003 µM, first compound 0.00316 µM) 91.1% | viability, T/C (second compound 0.003 µM, first compound 0.01 µM) 87.6% | viability, T/C [7] 16.5% | viability, T/C (second compound 0.00949 µM, first compound 0.00316 µM) 87.6% | viability, T/C (second compound 0.00949 µM, first compound 0.01 µM) 72.9% | viability, T/C [13] 13.3% | viability, T/C [14] 9.05% | viability, T/C [15] 9.37% | viability, T/C [16] 12.1% | viability, T/C (second compound 0.03 µM, first compound 0.00316 µM) 91.4% | viability, T/C (second compound 0.03 µM, first compound 0.01 µM) 79.9% | viability, T/C [19] 13.5% | viability, T/C (second compound 0.0949 µM, first compound 0.00316 µM) 87.8% | viability, T/C (second compound 0.0949 µM, first compound 0.01 µM) 66.9% | viability, T/C (second compound 0.3 µM, first compound 0.00316 µM) 71.7% | viability, T/C (second compound 0.3 µM, first compound 0.01 µM) 58%
12 nM: IC50 (second compound 0.3 µM)
15.6 nM: IC50 (second compound 0.00949 µM)
active: viability, T/C [2] 7.41% | viability, T/C [3] 10.3% | viability, T/C [4] 9.82% | viability, T/C [8] 7.59% | viability, T/C [9] 8.56% | viability, T/C [10] 11.9% | viability, T/C [20] 8.42% | viability, T/C [21] 8.07% | viability, T/C [22] 6.73% | viability, T/C [25] 9.91% | viability, T/C [26] 4.39% | viability, T/C [27] 7.38% | viability, T/C [28] 6.23% | viability, T/C [31] 8.51% | viability, T/C [32] 3.06% | viability, T/C [33] 4.98% | viability, T/C [34] 5.37%
